# Laboratory results as given in US9079863B2, “Crystalline forms for 5-amino-2,3-dihydrophthalazine-1,4-dione sodium salt, pharmaceutical preparations containing the same and method for the production of said forms” (METRIOPHARM AG, priority 2010, dated 2015).
# Counter-ions that a name gives are not always drawn. Like-named read-outs stand apart in the source and are kept apart here.
# Experiments:
# [1] = for Endothermous solid phase transformation: 30-300° C. under helium; for Endothermous solid phase transformation / Disintegration temperature: sodium salt; for Disintegration temperature: 30-500° C. in synthetic air (4 N2: 1 O2)
# Protocol: (Table 5). The solid phase transformation of the dihydrate according to U.S. Pat. No. 6,483,326 B1 was measured by means of the simultaneous thermogravimetry-differential thermal analysis with a Linseis L81-077 coupled with mass spectroscopy measurement with a Netzsch STA 449 C thermobalance, with MS and FTIR coupling at 30-300° C. under helium. The disintegration temperatures of forms I-II were determined with the same device at 30-500° C. in synthetic air (4 N2: 1 O2). The data were analyzed with the factory-set software Proteus.
# physchem = settings: in water at room temperature, saturated solution
# Protocol: Further, the solubility of the crystalline forms in a saturated solution was determined.
# [2] = tested on: isolated mouse macrophages
# Protocol: For this purpose, the macrophages were first treated with form I (20 or 200 μg/mL). After 1 hour the treated macrophages were stimulated with LPS (10, 100 or 1,000 ng/mL). The supernatants were collected 24 h later, and the concentration of TNF-alpha and IL-6 was measured. Not stimulated macrophages, not stimulated macrophages treated with 200 μg/mL form I and LPS-stimulated macrophages (10, 100 or 1,000 ng/mL LPS) were used as controls.
# [3] = not infected mice; for Weight development/increase MW: over two days
# Protocol: (§1) In a mouse model of the Gram-positive sepsis (infection with S. pyogenes) the therapeutic usability of the crystal forms I and II of the 5-amino-2,3-dihydrophthalazine-1,4-dione sodium salt was tested. The administration of active ingredient was made parenterally 6 hours after the infection occurred. A second administration of active ingredient was made 24 hours after the first application. The test was completed 48 hours after the infection. For both forms (substance groups) three different doses were used. The mice obtained 2, 20 or 200 μg each of form I or form II per animal and application.
# (§2) The individual treatment groups comprised 5 animals each, and for the not infected controls two repetitions and for the infected controls and that groups that contained form II four repetitions were made, so that in total 180 animals were in the test.
# It is known that the toxicity of substances in an animal test with growing-up mice or rate can influence the weight development.
# S. pyogenes [4] = settings: for Weight development/increase Total MW / Weight development/increase Day 1 MW: infected mice, sodium salt; for Weight development/increase Total MW: complete test time 48 h, survivors
# Protocol: as §1, §2
# In the sepsis model described in Example 3, the influence of crystal forms I and II of the 5-amino-2,3-dihydrophthalazine-1,4-dione sodium salt on the weight development of mice infected with S. pyogenes was tested. The development of the body weight during an acute infection may supply important predictive information.
# S. pyogenes [5] = settings: 48 hours after the infection
# Protocol: as §1, §2
# In the sepsis model described in Example 3, the influence the crystal forms II and I of the 5-amino-2,3-dihydrophthalazine-1,4-dione sodium, salt on the probability of survival of the mice infected with S. pyogenes was tested.
# S. pyogenes [6] = settings: for Germ load (CFU) Blood MW / Germ load (CFU) Liver MW: 48 hours after the infection, sodium salt
# Protocol: as §1, §2
# In the sepsis model described in Example 3, the influence of crystal forms II and I of the 5-amino-2,3-dihydrophthalazine-1,4-dione sodium salt on the germ load of the mice infected with S. pyogenes in blood and liver was tested. The test was completed 48 hours after the infection, and the germ load (CFU) existing at this time in blood and liver was determined (see Table).
# [7] = healthy mice
# Protocol: as §1
# Blood taking occurred after 48 hours at the end of the second application day.
# [8] = healthy mice, end of the second application day
# From the text: When administering form I and form II to healthy mice, it was investigated, whether and which influence the application has on certain liver enzymes, in particular the transaminases GOT (AST) and GPT (ALT). Blood taking occurred at the end of the second application day.
# [9] = 0.25 g in 10 mL H2O VE, stirring 500 rpm, 25° C., first minutes after addition; sodium salt
# Protocol: The complete dissolution of 0.25 g form I or form II, respectively, in 10 mL H2O VE was achieved under stirring (500 rpm) at 25° C.
# [10] = 200 μg/mL, not stimulated macrophages (no LPS)
# [11] = dose 20 μg, LPS 10 ng/mL, supernatant 24 h
# [12] = dose 20 μg, LPS 100 ng/mL, supernatant 24 h
# [13] = dose 20 μg, LPS 1 mg/mL, supernatant 24 h
# [14] = dose 200 μg, LPS 10 ng/mL, supernatant 24 h
# [15] = dose 200 μg, LPS 100 ng/mL, supernatant 24 h
# [16] = dose 200 μg, LPS 1 mg/mL, supernatant 24 h
structure (smiles),measurement,setting,value
"Nc1cccc2c(=O)[nH][nH]c(=O)c12 [Dihydrate, 5-amino-2,3-dihydrophthalazine-1,4-dione sodium salt]",Endothermous solid phase transformation,[1]; listed as dihydrate,85 °C
same,Endothermous solid phase transformation,[1],85 °C ± 10 °C
same,Solubility,physchem; sodium salt,168 mg/mL
"Nc1cccc2c(=O)[nH][nH]c(=O)c12 [Form I, 5-amino-2,3-dihydrophthalazine-1,4-dione sodium salt]",Disintegration temperature,[1]; listed as form I,335 °C
same,Disintegration temperature,[1],335 °C ± 10 °C
same,Time for which the crystalline form is stable,[1]; room temperature (25° C.) and 40° C.,at least two
same,Solubility,"physchem; water, thermodynamic from solid, Solubility",227 mg/mL
same,Immunodepressive effect,"[2]; 100 ng/5 mL LPS, 200 μg/mL",most distinct
same,Change of TNF-alpha values,[2]; 1 μg/mL LPS with 200 μg/mL,significant reduction
same,Effect on not stimulated macrophages by TNF-alpha values,"[2]; 200 μg/mL, not stimulated",immunostimulating effect
same,IL-6 MW,[2]; [10],0.24 ng/mL
same,TNF-alpha MW,[2]; [10],7.98 ng/mL
same,Effect in the combination groups with LPS,[2]; all LPS groups,"dose-dependent, immunodepressive effect"
same,IL-6 MW,[2]; [11],6.05 ng/mL
same,TNF-alpha MW,[2]; [11],13.27 ng/mL
same,IL-6 MW,[2]; [12],19.67 ng/mL
same,TNF-alpha MW,[2]; [12],27.17 ng/mL
same,IL-6 MW,[2]; [13],22.67 ng/mL
same,TNF-alpha MW,[2]; [13],47.91 ng/mL
same,IL-6 MW,[2]; [14],7.19 ng/mL
same,TNF-alpha MW,[2]; [14],20.74 ng/mL
same,IL-6 MW,[2]; [15],10.88 ng/mL
same,TNF-alpha MW,[2]; [15],16.47 ng/mL
same,IL-6 MW,[2]; [16],15.95 ng/mL
same,TNF-alpha MW,[2]; [16],32.53 ng/mL
same,Toxicity judged from weight development,[3],do not have any toxicity or at most a very small one
same,Weight development/increase MW,"[3]; 2 μg per animal and application, parenteral, sodium salt",-0.49 g
same,Weight development/increase MW,"[3]; 20 μg per animal and application, parenteral, sodium salt",1.48 g
same,Weight development/increase MW,"[3]; 200 μg per animal and application, parenteral, sodium salt",0.79 g
same,Weight development/increase MW,[3]; all doses (total),0.59 g
same,Weight loss compared to control groups,S. pyogenes [4]; first 24 hours after the infection,lower weight losses
same,Weight development/increase Total MW,S. pyogenes [4]; 2 μg,-2.41 g
same,Weight development/increase Day 1 MW,S. pyogenes [4]; 2 μg,-0.64 g
same,Weight development/increase Total MW,S. pyogenes [4]; 20 μg,-1.46 g
same,Weight development/increase Day 1 MW,S. pyogenes [4]; 20 μg,-0.09 g
same,Weight development/increase Total MW,S. pyogenes [4]; 200 μg,-1.69 g
same,Weight development/increase Day 1 MW,S. pyogenes [4]; 200 μg,-0.03 g
same,Weight development/increase Total MW,S. pyogenes [4]; all doses (total),-1.85 g
same,Weight development/increase Day 1 MW,S. pyogenes [4]; all doses (total),-0.25 g
same,Share of surviving mice,"S. pyogenes [5]; 2 μg, sodium salt",80%
same,Share of surviving mice,S. pyogenes [5]; 20 μg,80%
same,Share of surviving mice,"S. pyogenes [5]; 200 μg, sodium salt",80%
same,Survival compared to the controls,S. pyogenes [5],increase of the share of surviving animals
same,Share of surviving mice,S. pyogenes [5]; all doses (total),80%
same,Germ load (CFU) Blood MW,S. pyogenes [6]; 2 μg,7.00 log/mL
same,Germ load (CFU) Liver MW,S. pyogenes [6]; 2 μg,6.56 log/g
same,Germ load (CFU) Blood MW,S. pyogenes [6]; 20 μg,6.33 log/mL
same,Germ load (CFU) Liver MW,S. pyogenes [6]; 20 μg,6.57 log/g
same,Germ load (CFU) Blood MW,S. pyogenes [6]; 200 μg,5.77 log/mL
same,Germ load (CFU) Liver MW,S. pyogenes [6]; 200 μg,6.09 log/g
same,Germ load (CFU) Blood MW,S. pyogenes [6]; all doses (total),6.37 log/mL
same,Germ load (CFU) Liver MW,S. pyogenes [6]; all doses (total),6.41 log/g
same,Germ count in the blood compared to the controls,S. pyogenes [6]; highest dose,tendentious germ count reduction
same,TNF-alpha MW,"[7]; 2 μg, blood after 48 hours, sodium salt",128.8 pg/mL
same,TNF-alpha versus control groups and form II groups,"[7]; 20 μg dose, p<0.001",significantly different
same,TNF-alpha MW,"[7]; 20 μg, blood after 48 hours, sodium salt",341.8 pg/mL
same,TNF-alpha MW,"[7]; 200 μg, blood after 48 hours, sodium salt",154.1 pg/mL
same,TNF-alpha MW,"[7]; all doses (total), blood after 48 hours, sodium salt",208.2 pg/mL
same,IL-6 increase,[7]; blood after 48 hours,neither in the substance groups nor in the control groups increases could be found
same,TNF-alpha increase,"[7]; compared to the other groups, sodium salt",distinct increases
same,Transaminases GOT (AST) and GPT (ALT),[8],Distinct differences between the groups could not be found
same,Initial dissolution rate,[9],only retarded reaches its complete equilibrium concentration
